What was measured:
[1] = target: T1, Adrenergic receptor alpha-2 (Homo sapiens, UniProt P08913+P18825+P18089); assay type: cell membranes
T1 sequence (P08913 whole entry): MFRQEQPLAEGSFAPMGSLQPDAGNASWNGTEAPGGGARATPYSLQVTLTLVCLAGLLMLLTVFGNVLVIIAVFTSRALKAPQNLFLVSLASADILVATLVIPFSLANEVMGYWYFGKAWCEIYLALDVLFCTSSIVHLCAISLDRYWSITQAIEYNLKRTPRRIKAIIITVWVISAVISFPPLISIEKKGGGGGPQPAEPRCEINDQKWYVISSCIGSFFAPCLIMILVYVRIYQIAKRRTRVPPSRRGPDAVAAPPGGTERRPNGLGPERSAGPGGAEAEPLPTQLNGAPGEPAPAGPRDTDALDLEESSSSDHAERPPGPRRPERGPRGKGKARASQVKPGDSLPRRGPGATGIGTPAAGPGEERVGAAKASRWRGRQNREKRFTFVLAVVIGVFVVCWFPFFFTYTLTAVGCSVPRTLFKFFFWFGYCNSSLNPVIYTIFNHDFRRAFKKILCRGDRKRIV
T1 sequence (P18825 whole entry): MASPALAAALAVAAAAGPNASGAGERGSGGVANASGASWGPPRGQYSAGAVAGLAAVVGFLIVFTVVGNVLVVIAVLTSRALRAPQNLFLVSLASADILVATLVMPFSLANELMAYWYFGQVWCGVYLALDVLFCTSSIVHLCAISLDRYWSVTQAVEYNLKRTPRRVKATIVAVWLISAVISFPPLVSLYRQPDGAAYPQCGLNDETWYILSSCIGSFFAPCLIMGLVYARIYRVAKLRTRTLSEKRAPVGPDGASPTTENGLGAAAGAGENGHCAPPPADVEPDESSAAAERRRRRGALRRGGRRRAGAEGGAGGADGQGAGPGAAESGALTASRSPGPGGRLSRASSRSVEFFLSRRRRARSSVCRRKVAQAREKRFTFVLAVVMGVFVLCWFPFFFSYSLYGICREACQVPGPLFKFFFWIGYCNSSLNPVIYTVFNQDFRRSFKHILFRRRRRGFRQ
T1 sequence (P18089 whole entry): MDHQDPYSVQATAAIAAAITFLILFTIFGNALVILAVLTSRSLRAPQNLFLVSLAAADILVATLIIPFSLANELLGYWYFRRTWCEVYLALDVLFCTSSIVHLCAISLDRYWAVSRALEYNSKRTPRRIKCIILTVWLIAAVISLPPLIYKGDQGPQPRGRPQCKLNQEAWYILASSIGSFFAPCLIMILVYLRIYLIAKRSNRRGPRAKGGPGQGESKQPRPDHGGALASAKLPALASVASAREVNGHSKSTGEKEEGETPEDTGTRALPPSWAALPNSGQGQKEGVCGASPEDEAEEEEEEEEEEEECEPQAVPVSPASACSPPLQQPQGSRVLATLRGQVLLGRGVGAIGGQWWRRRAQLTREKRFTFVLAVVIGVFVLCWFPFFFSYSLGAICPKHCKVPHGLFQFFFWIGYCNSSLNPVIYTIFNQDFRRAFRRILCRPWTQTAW

[2] = system: Adrenergic receptor alpha-2 (Cavia porcellus); settings: Cardiac atrium
[3] = target: T1, Adrenergic receptor alpha-2; experiment: Binding affinity against alpha-2-adrenergic receptor using 10 nM [3H]yohimbine in preparations in human platelet membranes from three separate experiments using 10 inhibitor concentrations; assay type: cell membranes
[4] = target: T1, Adrenergic receptor alpha-2; experiment: Binding affinity against alpha-2-adrenergic receptor using 10 nM [3H]yohimbine in human platelet membranes from four to five separate experiments using 12 inhibitor concentrations; assay type: cell membranes

| Structure (SMILES) | Ki [1] | K beta [2] | Ki [3] | Ki [4] |
| --- | --- | --- | --- | --- |
| C=CCOc1cccc2c1CCN(C)CC2 | 338 nM | 206 nM | – | – |
| C=CCN1CCc2cccc(Cl)c2CC1 | 6.1 nM | 60 nM | – | – |
| C=CCOc1ccc2c(c1)CCNCC2 | – | – | 232 nM | – |
| C=CCOc1ccc(Cl)c2c1CCN(C)CC2 | – | 150 nM | – | 48 nM |

Reference: ChEMBL document CHEMBL1122691, “Development of an affinity ligand for purification of alpha 2-adrenoceptors from human platelet membranes” (J Med Chem, 1984)
